# Experiments:
# STAT6 = target: T1, STAT6 (Homo sapiens, UniProt P42226); test: STAT6 Reporter Luciferase Assay (IL-13 stimulated HaCaT keratinocyte NanoLuc reporter cells); assay type: cell-based; details: STAT6 NanoLuc luciferase reporter, IL-13 stimulated HaCaT keratinocyte cells; read-out: Reporter EC50
# T1 construct: stably transfected HaCaT keratinocyte cell line, which expresses NanoLuc luciferase reporter gene under the transcriptional control of the STAT6 responsive promoter; endogenous in cells; host or cells: HaCaT keratinocyte reporter cell line (stably transfected with a NanoLuc reporter)
# T1 sequence (P42226 1-847): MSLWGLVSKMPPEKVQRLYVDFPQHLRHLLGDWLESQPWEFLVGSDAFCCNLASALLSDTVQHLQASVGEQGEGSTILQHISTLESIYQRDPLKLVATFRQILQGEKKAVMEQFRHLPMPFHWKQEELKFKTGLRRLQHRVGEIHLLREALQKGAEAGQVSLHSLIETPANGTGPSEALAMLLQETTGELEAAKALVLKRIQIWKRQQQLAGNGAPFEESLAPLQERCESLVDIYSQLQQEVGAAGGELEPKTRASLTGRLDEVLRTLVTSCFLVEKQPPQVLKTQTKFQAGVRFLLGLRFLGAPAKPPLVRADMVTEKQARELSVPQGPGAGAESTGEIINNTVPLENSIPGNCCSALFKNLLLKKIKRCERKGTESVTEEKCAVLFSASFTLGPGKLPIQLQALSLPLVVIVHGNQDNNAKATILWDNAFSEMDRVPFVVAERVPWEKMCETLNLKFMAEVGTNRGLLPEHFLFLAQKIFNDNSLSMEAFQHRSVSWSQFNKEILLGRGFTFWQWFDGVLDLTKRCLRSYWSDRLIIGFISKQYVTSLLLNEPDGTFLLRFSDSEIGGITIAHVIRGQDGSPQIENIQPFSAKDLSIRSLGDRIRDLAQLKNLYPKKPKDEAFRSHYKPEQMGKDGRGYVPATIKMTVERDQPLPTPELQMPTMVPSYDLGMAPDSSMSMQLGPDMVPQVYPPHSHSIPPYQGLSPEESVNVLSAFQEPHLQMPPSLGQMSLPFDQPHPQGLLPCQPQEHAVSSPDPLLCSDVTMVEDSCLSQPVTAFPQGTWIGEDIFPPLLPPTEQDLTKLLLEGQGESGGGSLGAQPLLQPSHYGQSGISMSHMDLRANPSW
# Method in brief: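 HaCaT cells stably carrying a NanoLuc reporter driven by the STAT6-responsive IL-13Ra2 promoter were preincubated with compounds for 2 h at 37 °C in 2% FBS medium. Cells were then stimulated with 0.12 nM IL-13 for 4 h, and luminescence was read after Nano-Glo substrate. Compounds ran as 11-point 4-fold dilutions in duplicate.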
# [1] = test system: CCL17 secretion in peripheral human whole blood; test: Human Whole Blood (HWB) CCL17 TR-FRET Assay (IL-13 stimulated CCL17 secretion); assay type: cell-based; details: Homo sapiens, 48 h, inhibition of CCL17 secretion in human whole blood, 10 ng/mL IL13, 48 hours
# Method in brief: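 Measured here: CCL17 in serum by TR-FRET (665/615 nm) after overnight (16 h) room-temperature detection. The blood, heparinized and compound-treated for 2 h, received IL-13 at 10 ng/mL final and was cultured 48 h at 37 °C.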
Compound,EC50 (STAT6),IC50 [1]
"CC(C)n1nc(C(=O)NCc2ccc(NC(=O)N3C[C@@H]4CC[C@H]3CO4)cc2)c2c1CCN(c1ccc(C(=O)N(C)C)cn1)C2 [Example 142, (1S,4S)-N-(4-((5-(5-(dimethylcarbamoyl)pyridin-2-yl)-1-isopropyl-4,5,6,7-tetrahydro-1H-pyrazolo[4,3-c]pyridine-3-carboxamido)methyl)phenyl)-2-oxa-5-azabicyclo[2.2.2]octane-5-carboxamide]",15 nM,39 nM
"CC(C)n1nc(C(=O)NCc2ccc(NC(=O)N3CCCCC3)cc2)c2c1CCN(c1ccc(C(=O)N(C)C)cn1)C2 [Example 144, 5-(5-(dimethylcarbamoyl)pyridin-2-yl)-1-isopropyl-N-(4-(piperidine-1-carboxamido)benzyl)-4,5,6,7-tetrahydro-1H-pyrazolo[4,3-c]pyridine-3-carboxamide]",7 nM,292 nM
"CC(C)n1nc(C(=O)NCc2ccc(NC(=O)N(C)C)cc2)c2c1CCN(c1ccc(N3CCCS3(=O)=O)cn1)C2 [Example 146, N-(4-(3,3-dimethylureido)benzyl)-5-(5-(1,1-dioxidoisothiazolidin-2-yl)pyridin-2-yl)-1-isopropyl-4,5,6,7-tetrahydro-1H-pyrazolo[4,3-c]pyridine-3-carboxamide]",127 nM,2120 nM
"CC(C)n1nc(C(=O)NCc2ccc(NC(=O)N3CCC4(COC4)C3)cc2)c2c1CCN(c1ccc(C(=O)N(C)C)cn1)C2 [Example 152, N-(4-((5-(5-(dimethylcarbamoyl)pyridin-2-yl)-1-isopropyl-4,5,6,7-tetrahydro-1H-pyrazolo[4,3-c]pyridine-3-carboxamido)methyl)phenyl)-2-oxa-6-azaspiro[3.4]octane-6-carboxamide]",31 nM,155 nM
"CC(C)n1nc(C(=O)NCc2ccc(NC(=O)N3CCC4(CC3)COC4)cc2)c2c1CCN(c1ccc(C(=O)N(C)C)cn1)C2 [Example 156, N-(4-((5-(5-(dimethylcarbamoyl)pyridin-2-yl)-1-isopropyl-4,5,6,7-tetrahydro-1H-pyrazolo[4,3-c]pyridine-3-carboxamido)methyl)phenyl)-2-oxa-7-azaspiro[3.5]nonane-7-carboxamide]",6 nM,58 nM
"CC(C)n1nc(C(=O)NCc2ccc(NC(=O)N3CCO[C@H](CO)C3)cc2)c2c1CCN(c1ccc(C(=O)N(C)C)cn1)C2 [Example 159, (S)-N-(4-((5-(5-(dimethylcarbamoyl)pyridin-2-yl)-1-isopropyl-4,5,6,7-tetrahydro-1H-pyrazolo[4,3-c]pyridine-3-carboxamido)methyl)phenyl)-2-(hydroxymethyl)morpholine-4-carboxamide]",16 nM,59 nM
"CC(C)n1nc(C(=O)NCc2ccc(NC(=O)N3CCC(C(F)F)CC3)cc2)c2c1CCN(c1ccc(C(=O)N(C)C)cn1)C2 [Example 161, N-(4-(4-(difluoromethyl)piperidine-1-carboxamido)benzyl)-5-(5-(dimethylcarbamoyl)pyridin-2-yl)-1-isopropyl-4,5,6,7-tetrahydro-1H-pyrazolo[4,3-c]pyridine-3-carboxamide]",7 nM,199 nM
"CC(C)n1nc(C(=O)NCc2ccc(NC(=O)N3CCC(OCCO)CC3)cc2)c2c1CCN(c1ccc(C(=O)N(C)C)cn1)C2 [Example 162, 5-(5-(dimethylcarbamoyl)pyridin-2-yl)-N-(4-(4-(2-hydroxyethoxy)piperidine-1-carboxamido)benzyl)-1-isopropyl-4,5,6,7-tetrahydro-1H-pyrazolo[4,3-c]pyridine-3-carboxamide]",11 nM,66 nM

# The remaining lines, values ahead:
EC50 (STAT6),IC50 [1],Compound
22 nM,78 nM,"CC(C)n1nc(C(=O)NCc2ccc(NC(=O)N3CC(N(C)C)C3)cc2)c2c1CCN(c1ccc(C(=O)N(C)C)cn1)C2 [Example 141, N-(4-(3-(dimethylamino)azetidine-1-carboxamido)benzyl)-5-(5-(dimethylcarbamoyl)pyridin-2-yl)-1-isopropyl-4,5,6,7-tetrahydro-1H-pyrazolo[4,3-c]pyridine-3-carboxamide]"
26 nM,252 nM,"CC(=O)Nc1ccc(CNC(=O)c2nn(C(C)C)c3c2CN(c2ccc(C(=O)N(C)C)cn2)CC3)cc1 [Example 147, N-(4-acetamidobenzyl)-5-(5-(dimethylcarbamoyl)pyridin-2-yl)-1-isopropyl-4,5,6,7-tetrahydro-1H-pyrazolo[4,3-c]pyridine-3-carboxamide]"
10 nM,176 nM,"CN(C)C(=O)Nc1ccc(CNC(=O)c2nn(C(C)(C)C)c3c2CN(c2ccc(C(=O)N(C)C)cn2)CC3)cc1 [Example 148, 1-(tert-butyl)-5-(5-(dimethylcarbamoyl)pyridin-2-yl)-N-(4-(3,3-dimethylureido)benzyl)-4,5,6,7-tetrahydro-1H-pyrazolo[4,3-c]pyridine-3-carboxamide]"
18 nM,70 nM,"CC(C)n1nc(C(=O)NCc2ccc(NC(=O)N3CC(C)(N(C)C)C3)cc2)c2c1CCN(c1ccc(C(=O)N(C)C)cn1)C2 [Example 150, N-(4-(3-(dimethylamino)-3-methylazetidine-1-carboxamido)benzyl)-5-(5-(dimethylcarbamoyl)pyridin-2-yl)-1-isopropyl-4,5,6,7-tetrahydro-1H-pyrazolo[4,3-c]pyridine-3-carboxamide]"
11 nM,108 nM,"CC(C)n1nc(C(=O)NCc2ccc(NC(=O)N3CC[C@H](F)C3)cc2)c2c1CCN(c1ccc(C(=O)N(C)C)cn1)C2 [Example 153, (S)-5-(5-(dimethylcarbamoyl)pyridin-2-yl)-N-(4-(3-fluoropyrrolidine-1-carboxamido)benzyl)-1-isopropyl-4,5,6,7-tetrahydro-1H-pyrazolo[4,3-c]pyridine-3-carboxamide]"
8 nM,449 nM,"CC(C)n1nc(C(=O)NCc2ccc(NC(=O)NCC3CC3)cc2)c2c1CCN(c1ccc(C(=O)N(C)C)cn1)C2 [Example 154, N-(4-(3-(cyclopropylmethyl)ureido)benzyl)-5-(5-(dimethylcarbamoyl)pyridin-2-yl)-1-isopropyl-4,5,6,7-tetrahydro-1H-pyrazolo[4,3-c]pyridine-3-carboxamide]"
8 nM,535 nM,"CC(C)n1nc(C(=O)NCc2ccc(NC(=O)NC3CCC3)cc2)c2c1CCN(c1ccc(C(=O)N(C)C)cn1)C2 [Example 157, N-(4-(3-cyclobutylureido)benzyl)-5-(5-(dimethylcarbamoyl)pyridin-2-yl)-1-isopropyl-4,5,6,7-tetrahydro-1H-pyrazolo[4,3-c]pyridine-3-carboxamide]"
15 nM,130 nM,"CC(C)n1nc(C(=O)NCc2ccc(NC(=O)N3CC(C#N)C3)cc2)c2c1CCN(c1ccc(C(=O)N(C)C)cn1)C2 [Example 158, N-(4-(3-cyanoazetidine-1-carboxamido)benzyl)-5-(5-(dimethylcarbamoyl)pyridin-2-yl)-1-isopropyl-4,5,6,7-tetrahydro-1H-pyrazolo[4,3-c]pyridine-3-carboxamide]"
16 nM,30 nM,"CC(C)n1nc(C(=O)NCc2ccc(NC(=O)N3CC(C)(N)C3)cc2)c2c1CCN(c1ccc(C(=O)N(C)C)cn1)C2 [Example 163, N-(4-(3-amino-3-methylazetidine-1-carboxamido)benzyl)-5-(5-(dimethylcarbamoyl)pyridin-2-yl)-1-isopropyl-4,5,6,7-tetrahydro-1H-pyrazolo[4,3-c]pyridine-3-carboxamide]"

# Reference: patent publication US20250320213A1, “Nitrogen-Containing Heterocyclic Compounds” (Pfizer Inc., priority 2024, published 2025)
